Where two headings read alike, the source gives them in different places.
What was measured:
[1] = tested on: T-DNA transfer to BMS cells
Method: (§1) Transformation of BMS suspension cells was performed following the protocol described in Table 8. For transforming kalanchoe leaves, a suspension of cells from Agrobacterium strain A281 was applied after performing mechanical wounding as described in White and Nester. The Agrobacterium strain, A136 harboring a binary vector pMON25457 (FIG. 3) was used as a negative control.
The efficiency of T-DNA delivery to BMS cells was measured by transient GUS expression post co-cultivtion as well as by staining GUS positive colonies appearing on a single piece of filter 4 weeks after co-culture.
(§2) During pre-induction, AgNO3 was added at two different levels (20 ? M and 40 ? M final concentration) to the pre-induction medium. The final optical density prior to the induction was adjusted to A660 (OD 0.2). Agrobacterium cells were pre-induced for 15 hours. Measurement of the optical density (measure of growth) was taken at the end of pre-induction, just prior to transformation. Agrobacterium cells pre-induced in the absence of AgNO3 were used as a control.

[2] = tested on: corn immature embryos, genotype LH198 X Hi-II; settings: 20 μM silver nitrate
Source text: Corn genotype LH198 X Hi-II was used. Corn immature embryos were isolated as described previously. Approximately 30 immature embryos were inoculated for each treatment with Agrobacterium strain ABI harboring plasmid pMON18365 for five minutes and placed on co-culture media for two to three days. There were 4 replicates per treatment. The four treatments included:
Treatment 1: absence of growth inhibiting agent (in both inoculation and co-culture media)
Treatment 2: absence of agent in inoculation media; presence of agent (20 μM silver nitrate) in co-culture media.
Treatment 3: presence of agent (20 μM silver nitrate) in inoculation media; absent in co-culture media
Treatment 4: presence of agent (20 μM silver nitrate) in both inoculation and co-culture media
Within each treatment, five immature embryos were used for transient analysis. This was repeated across all reps within each treatment. The number of GUS spots was determined on both the scutellar surface (scutellar side up) as shown in Table 23 and the number of GUS spots was determined on the axis side of the embryos as shown in Table 24.

[3] = tested on: T-DNA transfer (tumor induction) to Kalanchoe cells
Method: as §1, §2

[4] = tested on: immature embryos of genotype (H99×Pa 91)A188; test: Transformation efficiency of corn with different growth inhibiting agents during co-culture; assay type: cell-based; settings: three days, OD 4.0
Method: b) Biological assay (leaf bleach assay). Leaf samples (a leaf punch) from approximately 2-week-old seedlings were placed in wells of 24-well cell culture clusters (Costar Corporation, Cambridge, Mass.). Each well was filled with 0.5 ml aqueous solution composed of 300 mg/L paromomycin (Sigma) and 100 mg/L Benlate (a fungicide made by Du Pont), 100 mg/IL Benlate alone was used as a control. Three leaf samples from the same leaf of each plant were placed in two wells containing paromomycin plus Benlate and one well containing Benlate alone, respectively. Leaf samples from non-transformed plants were used as negative controls. The samples were vacuum-infiltrated in a dessicator using an in-house vacuum system for 5 min and then the clusters were sealed tightly with parafilm before being placed under light (140 μMol m-2s-1). The results were determined after 60 hours.
(§3) Immature embryos of genotype (H99×Pa 91)A188 were isolated as described. […] The Agrobacterium strain was pre-induced as described. The inoculation was performed using a concentration of A660 OD 4.0 for 15 minutes as described. Post inoculation, Agrobacterium suspension was removed and embryos were placed on different semi-solid co-culture media supplemented with various bacteriocidal compounds. All the tissues were incubated for three days in the dark. The transformation protocol followed was as described previously (corn IE transformation) except that the 1st selection with 50 mg/L Paromomycin was replaced with 25 mg/L Paromomycin for 2 weeks and 50 mg/L Paromomycin for 2 additional weeks. Transformation efficiency was calculated based on the number of embryos producing nptII positive plants as determined by a leaf bleach assay as described earlier. Three weeks after the transformation, the quality and growth characteristics of IE-derived callus co-cultured in the presence of different growth inhibiting agents.

[5] = tested on: Agrobacterium tumefaciens strain C58 (ABI)
Method: Disarmed Agrobacterium tumefaciens strain C58 (ABI) harboring binary vector pMON18365 (FIG. 2) was used in this Example. The Agrobacterium strain was pre-induced as described previously.
Three mls of pre-induced Agrobacterium suspension (A660 OD 1.0) was added to a 6-well tissue culture plate. After adding the explants, the plant tissues and Agrobacterium suspension cells were subjected to vacuum infiltration for three hours. After the three hour vacuum infiltration, the Agrobacterium suspension was removed and the plant tissues were placed on semi-solid medium containing 10 ? M AgNO3 (final concentration). All the tissues were incubated for three days in the dark.
All explants were transferred to the medium without the growth inhibiting agent and evaluation of Agrobacterium growth was observed seven days post-transfer.

[6] = tested on: IE-derived callus, genotype (H99×Pa 91)A188; settings: 50 μM in co-culture medium; three weeks after the transformation
Method: as §3

[7] = tested on: T-DNA delivery to immature embryos of corn genotype H99×A188; settings: co-culture with 10 μM AgNO3, three days
Method: The Agrobacterium strain was pre-induced as described previously and three mls of pre-induced Agrobacterium suspension (A660 OD 1.0, 2.0, 3.0 and 4.0) was used. After adding the explants the Agrobacterium suspension cells, the inoculation was performed for 15 minutes. The Agrobacterium suspension was removed and embryos were placed on 1/2 MS corn co-culture medium supplemented with 10 ? M AgNO3 (final concentration). The co-culture duration was for three days in the dark. The efficiency of T-NA delivery was estimated by a transient GUS analysis three days after co-culture by incubating embryos directly in GUS staining buffer for 12-15 hours and counting the number of GUS foci per immature embryo explant (Table 20).

[8] = EHA 101:pMON25457 pre-induced with 20 μM AgNO3
[9] = EHA 101:pMON25457 pre-induced with 40 μM AgNO3

O=[N+]([O-])[O-].[Ag+] [AgNO3, silver nitrate]
Stable transformants obtained ([1]; Agrobacterium cells treated with AgNO3 during pre-induction): no stable transformants
Average # of GUS positive colonies/filter paper [1, 8]: 0
Results (T-DNA transfer) [1, 8]: no transfer
Average # of GUS positive colonies/filter paper [1, 9]: 0
Results (T-DNA transfer) [1, 9]: no transfer
Average # GUS spots/embryo (axis) ([2]; Treatment 2 (inoculation)): 40.8
Average # GUS spots/embryo (scutellar surface) ([2]; Treatment 2 (inoculation)): 82.5
Average # GUS spots/embryo (axis) ([2]; Treatment 3 (co-culture)): 3.8
Average # GUS spots/embryo (scutellar surface) ([2]; Treatment 3 (co-culture)): 81.8
Average # GUS spots/embryo (axis) ([2]; Treatment 4 (both)): 8.4
Average # GUS spots/embryo (scutellar surface) ([2]; Treatment 4 (both)): 58.9
Results (T-DNA transfer) ([3]; A281 pre-induced with 20 μM AgNO3): no transfer
Results (T-DNA transfer) ([3]; A281 pre-induced with 40 μM AgNO3): no transfer
% Transformation ([4]; 20 μM in co-culture medium): 16%
% Transformation ([4]; 50 μM in co-culture medium): 6.3%
Growth of Agrobacterium cells surrounding explants ([5]; co-culture medium with 10 μM AgNO3, three days): No growth
Growth of Agrobacterium cells surrounding explants after transfer to medium without the agent ([5]; seven days post-transfer, after three days on 10 μM AgNO3): Profuse growth
Culture response (callus quality) on co-culture media [6]: embryogenically the most competent callus
Average number of GUS foci/explant ([7]; OD660 1.0, Pre-induced): 7
Average number of GUS foci/explant ([7]; OD660 2.0, Not pre-induced (grown in LB)): 2
Average number of GUS foci/explant ([7]; OD660 2.0, Pre-induced): 28
Average number of GUS foci/explant ([7]; OD660 3.0, Pre-induced): 39
Average number of GUS foci/explant ([7]; OD660 4.0, Not pre-induced (grown in LB)): <1
Average number of GUS foci/explant ([7]; OD660 4.0, Pre-induced): 66

Source: patent publication US20030204875A1, “Novel agrobacterium-mediated plant transformation method” (priority 1999, published 2003)
